According to US10975068B2, “6-aminopyridin-3-yl thiazoles as modulators of RORγT” (Janssen Pharmaceutica NV, priority 2016, dated 2021):
Like-named read-outs stand apart in the source and are kept apart here. Marks after values point to notes of the source that are not given here.

Assays:
[1] = biological target: human RORγt ligand binding domain (RORγt LBD) (Homo sapiens (Human), UniProt P51449); experiment: RORγt ThermoFluor® assay (thermal shift binding); conditions: read-out: ThermoFluor® Assay, Kd
Summary of the method: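 Binding was inferred from thermal stabilisation (ΔTm) of the E. coli-expressed RORγt LBD (0.065 mg/mL), monitored by 1,8-ANS (60 μM) emission at 500 nm during a 1 °C/min ramp. Buffer was Hepes 100 mM pH 7.0 with NaCl, GSH and Tween-20.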

[2] = biological target: full-length human RORγt (Homo sapiens (Human), UniProt P51449); experiment: RORγt (full-length human) reporter assay, Conditions B or C; assay type: cell-based; conditions: for RORγt (FL) Reporter Assay B or C, % inhibition (value marked *): marked *: footnote not given; for inhibition at 3 µM: read-out: RORγt (FL) Reporter Assay B or C, % inhibition
Summary of the method: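 Readout is dual luciferase: firefly (GAL4-driven) normalized to DMSO-only and saturating-reference controls, then to CMV-Renilla. Full-length human RORγt fused to GAL4-DBD was transiently expressed in HEK293T; compound exposure ran overnight (16-20 h) starting 4-6 h after transfection, final FBS 1.3%, DMSO 0.1%.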

[3] = Conditions B or C, read-out: RORγt (FL) Reporter Assay B or C, IC50
[4] = read-out: RORγt (FL) Reporter Assay B or C, IC50
[5] = RORγt (FL) Reporter Assay B or C, IC50

Sequence of full-length human RORγt (P51449 other isoform, or with tags, fused parts or gaps): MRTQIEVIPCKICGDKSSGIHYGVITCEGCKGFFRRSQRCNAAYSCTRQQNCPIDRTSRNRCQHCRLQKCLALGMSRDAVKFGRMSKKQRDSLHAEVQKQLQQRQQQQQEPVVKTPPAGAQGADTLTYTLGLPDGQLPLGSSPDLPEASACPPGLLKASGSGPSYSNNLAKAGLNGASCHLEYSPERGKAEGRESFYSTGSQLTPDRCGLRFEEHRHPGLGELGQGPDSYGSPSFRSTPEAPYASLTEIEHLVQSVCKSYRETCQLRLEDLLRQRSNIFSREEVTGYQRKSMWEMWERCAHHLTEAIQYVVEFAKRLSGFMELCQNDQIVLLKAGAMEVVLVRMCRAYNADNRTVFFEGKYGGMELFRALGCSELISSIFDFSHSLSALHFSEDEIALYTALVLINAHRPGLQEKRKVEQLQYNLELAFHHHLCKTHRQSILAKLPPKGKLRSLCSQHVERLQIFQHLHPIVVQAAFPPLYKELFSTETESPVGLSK
Sequence of human RORγt ligand binding domain (RORγt LBD) (P51449 other isoform, or with tags, fused parts or gaps): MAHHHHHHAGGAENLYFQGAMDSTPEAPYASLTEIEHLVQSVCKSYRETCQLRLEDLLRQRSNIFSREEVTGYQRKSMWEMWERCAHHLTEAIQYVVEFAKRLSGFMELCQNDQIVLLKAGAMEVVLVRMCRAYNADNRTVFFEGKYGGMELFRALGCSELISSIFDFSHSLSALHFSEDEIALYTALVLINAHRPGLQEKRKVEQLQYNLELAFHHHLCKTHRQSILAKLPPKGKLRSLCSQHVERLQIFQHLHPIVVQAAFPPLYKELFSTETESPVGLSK

SMILES | Kd [1] | IC50 [2, 3] | RORγt (FL) Reporter Assay B or C, % inhibition (value marked *) ([2]; Conditions B or C) | inhibition at 3 µM ([2]; at 3 μM compound concentration) | IC50 [2, 4] | other results
C[C@H]1CC(F)(F)CN1C(=O)c1nc(C(=O)NCC(C)(C)O)sc1-c1cnc(NC(C2CC2)C2CC2)cc1C(F)(F)F [Example 138, (S)-5-(6-((Dicyclopropylmethyl)amino)-4-(trifluoromethyl)pyridin-3-yl)-4-(4,4-difluoro-2-methylpyrrolidine-1-carbonyl)-N-(2-hydroxy-2-methylpropyl)thiazole-2-carboxamide] | 0.62 nM | 12 nM | – | – | – | RORγt (FL) Reporter Assay B or C, % inhibition (value marked ***) ([2]; Conditions B or C, marked ***: footnote not given): 100*** %
CC[C@H](Nc1cc(C(F)F)c(-c2sc(C(=O)N[C@@H]3CCC[C@H]3O)nc2C(=O)N2C3CCC2CC3)cn1)C(F)(F)F [Example 225, 4-((1s,4s)-7-Azabicyclo[2.2.1]heptane-7-carbonyl)-5-(4-(difluoromethyl)-6-(((1S)-1-(trifluoromethyl)propyl)amino)-3-pyridyl)-N-((1R,2R)-2-hydroxycyclopentyl)thiazole-2-carboxamide] | 0.95 nM | 6.8 nM | 110* % | – | – | –
C[C@H]1CCCN1C(=O)c1nc(C(=O)NCC(C)(C)O)sc1-c1cnc(NCC(C)(C)C(F)(F)F)cc1C(F)(F)F [Example 120, (S)—N-(2-Hydroxy-2-methylpropyl)-4-(2-methylpyrrolidine-1-carbonyl)-5-(6-((3,3,3-trifluoro-2,2-dimethylpropyl)amino)-4-(trifluoromethyl)pyridin-3-yl)thiazole-2-carboxamide] | 1.7 nM | 26 nM | 103* % | – | – | –
C[C@H]1CCCN1C(=O)c1nc(C(=O)N[C@H](C)C(C)(C)O)sc1-c1cnc(NCC(C)(C)C)cc1C(F)F [Example 343, 5-[4-(Difluoromethyl)-6-(2,2-dimethylpropylamino)-3-pyridyl]-N-[(1R)-2-hydroxy-1,2-dimethyl-propyl]-4-[(2S)-2-methylpyrrolidine-1-carbonyl]thiazole-2-carboxamide] | 5.1 nM | – | – | 98% | 310 nM | –
CC[C@H](Nc1cc(C(F)F)c(-c2sc(C(=O)N[C@@H]3COC[C@@H]3O)nc2C(=O)N2CCC[C@@H]2C)cn1)C(F)(F)F (single isomer, unassigned) [Example 162, 5-(4-(Difluoromethyl)-6-(((S)-1,1,1-trifluorobutan-2-yl)amino)pyridin-3-yl)-N-((3R*,4R*)-4-hydroxytetrahydrofuran-3-yl)-4-((S)-2-methylpyrrolidine-1-carbonyl)thiazole-2-carboxamide] | 9.5 nM | 31 nM | 104* % | – | – | –
C[C@H]1CCCCN1C(=O)c1nc(C(=O)NCC(C)(C)O)sc1-c1cnc(NC(C)(C)C2CC2)cc1C(F)F [Example 88, (S)-5-(6-((2-Cyclopropylpropan-2-yl)amino)-4-(difluoromethyl)pyridin-3-yl)-N-(2-hydroxy-2-methylpropyl)-4-(2-methylpiperidine-1-carbonyl)thiazole-2-carboxamide] | 0.19 nM | 10 nM | 138* % | – | – | –
C[C@H](Nc1cc(C(F)F)c(-c2sc(C(=O)N[C@H]3CCC[C@@H]3O)nc2C(=O)N2C3CCC2CC3)cn1)C(F)(F)F [Example 293, 4-((1s,4s)-7-Azabicyclo[2.2.1]heptane-7-carbonyl)-5-(4-(difluoromethyl)-6-(((S)-1,1,1-trifluoropropan-2-yl)amino)pyridin-3-yl)-N-((1S,2S)-2-hydroxycyclopentyl)thiazole-2-carboxamide] | 2 nM | – | – | 94% | – | IC50 [2, 5]: 13 nM
C[C@H]1CCCN1C(=O)c1nc(C(=O)N[C@@H]2COC[C@H]2O)sc1-c1cnc(NC(C)(C)C)cc1C(F)F [Example 402, 5-[6-(tert-Butylamino)-4-(difluoromethyl)-3-pyridyl]-N-[(3R,4S)-4-hydroxytetrahydrofuran-3-yl]-4-[(2S)-2-methylpyrrolidine-1-carbonyl]thiazole-2-carboxamide] | 5.8 nM | – | – | 99% | 37 nM | –
C[C@H](NC(=O)c1nc(C(=O)N2C3CCC2CC3)c(-c2cnc(N[C@@H](C3CC3)C(F)(F)F)cc2C(F)F)s1)C(C)(C)O [Example 317, 4-((1s,4s)-7-Azabicyclo[2.2.1]heptane-7-carbonyl)-5-(6-(((S)-1-cyclopropyl-2,2,2-trifluoroethyl)amino)-4-(difluoromethyl)pyridin-3-yl)-N—((S)-3-hydroxy-3-methylbutan-2-yl)thiazole-2-carboxamide] | 2.4 nM | – | – | 106% | – | IC50 [2, 5]: 14 nM
C[C@H]1CCCN1C(=O)c1nc(C(=O)NCC(C)(O)C(F)(F)F)sc1-c1cnc(NC(C)(C)C)cc1C(F)(F)F (single isomer, unassigned) [Example 358, 5-(6-(tert-Butylamino)-4-(trifluoromethyl)pyridin-3-yl)-4-((S)-2-methylpyrrolidine-1-carbonyl)-N—((S*)-3,3,3-trifluoro-2-hydroxy-2-methylpropyl)thiazole-2-carboxamide] | 2.5 nM | – | – | 119% | 15 nM | –
C[C@H](Nc1cc(C(F)F)c(-c2sc(C(=O)N[C@H](C)C(C)(C)O)nc2C(=O)N2CC(F)(F)C[C@@H]2C)cn1)C1CC1 [Example 194, 5-(6-(((S)-1-Cyclopropylethyl)amino)-4-(difluoromethyl)pyridine-3-yl)-4-((S)-4,4-difluoro-2-methylpyrrolidine-1-carbonyl)-N—((R)-3-hydroxy-3-methylbutan-2-yl)thiazole-2-carboxamide] | 4.7 nM | 88 nM | 85* % | – | – | –
C[C@H](Nc1cc(C(F)F)c(-c2sc(C(=O)NC3CCC3O)nc2C(=O)N2CCC[C@@H]2C)cn1)C(F)(F)F (stereo partly drawn) [Example 389, 5-(4-(Difluoromethyl)-6-(((S)-1,1,1-trifluoropropan-2-yl)amino)pyridin-3-yl)-N-(cis-2-hydroxycyclobutyl)-4-((S)-2-methylpyrrolidine-1-carbonyl)thiazole-2-carboxamide] | 7.7 nM | – | – | – | 140 nM | RORγt (FL) Reporter Assay B or C, % inhibition ([2]; at 3 μM compound concentration): 90* %
C[C@H]1CCCN1C(=O)c1nc(C(=O)NCC(C)(C)O)sc1-c1cnc(NC(C2CC2)C2CC2)cc1C(F)(F)F [Example 139, (S)-5-(6-((Dicyclopropylmethyl)amino)-4-(trifluoromethyl)pyridin-3-yl)-N-(2-hydroxy-2-methylpropyl)-4-(2-methylpyrrolidine-1-carbonyl)thiazole-2-carboxamide] | 1.1 nM | 12 nM | 107* % | – | – | –
C[C@H]1CCCCN1C(=O)c1nc(C(=O)NCC(C)(C)O)sc1-c1cnc(N[C@H](C)C(F)(F)F)cc1C(F)(F)F [Example 45, N-(2-Hydroxy-2-methylpropyl)-4-((S)-2-methylpiperidine-1-carbonyl)-5-(4-(trifluoromethyl)-6-(((R)-1,1,1-trifluoropropan-2-yl)amino)pyridin-3-yl)thiazole-2-carboxamide] | 0.62 nM | 10 nM | – | – | – | inhibition at 6 µM ([2]; read-out: RORγt (FL) Reporter Assay B or C, % inhibition @ 6 μM, Conditions B or C, @ 6 μM): 111%
CC[C@H](Nc1cc(C(F)F)c(-c2sc(C(=O)N[C@H](C)[C@@H](C)O)nc2C(=O)N2CCC[C@@H]2C)cn1)C(F)(F)F (relative stereo) [Example 216, 5-(4-(Difluoromethyl)-6-(((S)-1,1,1-trifluorobutan-2-yl)amino)pyridin-3-yl)-N-((2R*,3R*)-3-hydroxybutan-2-yl)-4-((S)-2-methylpyrrolidine-1-carbonyl)thiazole-2-carboxamide] | 4.1 nM | 9.5 nM | 96* % | – | – | –
C[C@H](CO)NC(=O)c1nc(C(=O)N2CCC[C@@H]2C)c(-c2cnc(N[C@@H](C)C(F)(F)F)cc2C(F)F)s1 [Example 284, 5-(4-(Difluoromethyl)-6-(((S)-1,1,1-trifluoropropan-2-yl)amino)pyridin-3-yl)-N—((R)-1-hydroxypropan-2-yl)-4-((S)-2-methylpyrrolidine-1-carbonyl)thiazole-2-carboxamide] | 8.1 nM | – | – | 111% | 110 nM | –
C[C@H]1CCCN1C(=O)c1nc(C(=O)N[C@@H]2CCC[C@H]2O)sc1-c1cnc(NC(C)(C)C)cc1C(F)F [Example 397, 5-[6-(tert-Butylamino)-4-(difluoromethyl)-3-pyridyl]-N-[(1R,2R)-2-hydroxycyclopentyl]-4-[(2S)-2-methylpyrrolidine-1-carbonyl]thiazole-2-carboxamide] | 1.2 nM | – | – | 118% | 9 nM | –
C[C@H]1CC(F)(F)CN1C(=O)c1nc(C(=O)NCC(C)(C)O)sc1-c1cnc(NCC2(C(F)(F)F)CC2)cc1C(F)F [Example 275, 4-[(2S)-4,4-Difluoro-2-methyl-pyrrolidine-1-carbonyl]-5-[4-(difluoromethyl)-6-[[1-(trifluoromethyl)cyclopropyl]methylamino]-3-pyridyl]-N-(2-hydroxy-2-methyl-propyl)thiazole-2-carboxamide] | 2 nM | – | – | 99% | 14 nM | –
